Laboratory results taken from patent US20110104713A1, “PRODUCTS AND PROCESSES FOR MODULATING PEPTIDE-PEPTIDE BINDING DOMAIN INTERACTIONS” (priority 2002, published 2011).
“Also recorded” adds a separate entry of the source.

Assays:
[1] = molecular target: T1, GST-BRCA1 tandem BRCT domains interaction with phosphoproteins (Homo sapiens, UniProt P38398); experiment: GST-BRCA1 tandem BRCT pull-down of DNA damage-induced phosphoproteins from irradiated U2OS cells; assay type: binding
T1 construct: 15 μM GST-BRCA1 BRCT domains (residues 1634-1863); made in house; host or cells: E. coli DH5a
T1 sequence (P38398 1634-1863): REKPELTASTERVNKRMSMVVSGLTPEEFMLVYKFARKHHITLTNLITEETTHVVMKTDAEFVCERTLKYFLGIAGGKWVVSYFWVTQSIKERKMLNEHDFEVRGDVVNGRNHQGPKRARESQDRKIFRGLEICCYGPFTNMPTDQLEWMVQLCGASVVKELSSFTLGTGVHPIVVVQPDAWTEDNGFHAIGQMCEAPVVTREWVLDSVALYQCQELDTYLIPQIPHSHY
Protocol: (§1) U2OS cells were either treated with 10 Gy of ionizing radiation or mock irradiated and allowed to recover for 30-120 minutes. Cells were subsequently lysed in 50 mM Tris/HCl (pH7.6), 150 mM NaCl, 1.0% NP-40, 5 mM EDTA, 2 mM DTT, 8 μg/mL pepstatin, 8 μg/mL aprotinin, 8 μg/mL leupeptin, 2 mM Na3VO4, 10 mM NaF, 1 μM microcystin. The lysates (0.5-2 mg) were incubated with 20 μL glutathione beads containing 10-20 μg of GST-PTIP BRCT domains (residues 550-757), GST-BRCA1 BRCT domains (residues 1634-1863), or GST for 120 minutes at 4° C. Beads were washed three times with lysis buffer. Precipitated proteins were eluted in sample buffer and detected by blotting with anti-ATM/ATR substrate (pSer/pThr)Gln antibody (CELL SIGNALING TECHNOLOGY, Inc Beverly, Mass.), polyclonal anti-53BP1 (ONCOGENE […] PRODUCTS, San Diego, Calif. 92121), or monoclonal anti-HA (COVANCE Inc, Princeton, N.J.). For peptide competition experiments, GST-PTIP BRCT domains or GST-BRCA1 BRCT domains were immobilized on glutathionine beads and preincubated with 350 μM of BRCTtide-optimal, 7pT, 7T, pSQ-library, SQ-library, or pTP-library for 1 hour at 4° C. and washed three times with lysis buffer.

[2] = test system: GST-PTIP tandem BRCT domains interaction with 53BP1; experiment: GST-PTIP tandem BRCT pull-down of 53BP1 from irradiated U2OS cells; assay type: binding, human; settings: 25 mM caffeine prior to irradiation, U2OS
Protocol: as §1

[3] = molecular target: T2, GST-PTIP BRCT domains (residues 550-757) (Homo sapiens, UniProt Q6ZW49); experiment: Isothermal titration calorimetry of peptides with PTIP tandem BRCT domains; assay type: binding; settings: PTIP; N.D.B = no detectable binding by ITC, tandem BRCT domain concentration of at least 150 μM
T2 construct: 15 μM GST-PTIP BRCT domains (residues 550-757); made in house; host or cells: E. coli DH5a
T2 sequence (Q6ZW49 862-1069): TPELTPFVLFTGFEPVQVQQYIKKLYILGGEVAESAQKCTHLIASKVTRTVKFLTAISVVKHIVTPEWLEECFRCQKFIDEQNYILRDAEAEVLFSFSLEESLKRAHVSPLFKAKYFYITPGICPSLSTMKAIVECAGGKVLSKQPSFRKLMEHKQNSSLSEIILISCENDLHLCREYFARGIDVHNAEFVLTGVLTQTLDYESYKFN
Description: (§2) For deletion mapping of the PTIP and BRCA1 BRCT phospho-binding region and for expression of MDC 1, 53BP1 and Rad9 (FIG. 17-18), fragments were generated by PCR for in vitro transcription/translation and cloned into a pcDNA3.1 expression vector (Invitrogen, San Diego, Calif.). For production of recombinant GST-PTIP BRCT domains and GSTBRCA1 BRCT domains, residues 550-757 of PTIP and residues 1634-1863 of BRCA1 were ligated into the EcoRI and NotI sites of pGEX-4T1 (Pharmacia, Peapack, N.J.) and subsequently transformed into DH5a E. Coli. Protein induction occurred at 37° C. for 4 hours or at 25° C. for 16 hours in the presence of 0.4 mM IPTG. For peptide filter blot analysis and measurements of peptide binding affinity by ITC, GSTPTIP BRCT domains (residues 550-757) and GST-BRCA1 BRCT domains (residues 1634-1863) were isolated from bacterial lysates using glutathione agarose, eluted with 40 mM glutathione, and dialyzed into 50 mM Tris/HCl (pH 8.1), 300 mM NaCl. The GFP-PTIP constructs FL (residues 1-757), !BRCT (residues 1-550), or (BRCT)2 (residues 550-757) were cloned into the EcoRI and SalI sites of the pEGFP-C2 (BD Biosciences Clontech Franklin Lakes, N.J.) expression vector.
(§3) Peptides were synthesized by solid phase technique with three C-terminal lysines to enhance solubility. The peptides were then purified by reverse phase HPLC following deprotection and confirmed by MALDI-TOF mass spectrometry. Calorimetry measurements were performed using a VP-ITC microcalorimeter (MicroCal Inc., Studio City, Calif.). Experiments involved serial 10 μL injections of peptide solutions (20 μM-150 μM) into a sample cell containing 15 μM GST-PTIP BRCT domains (residues 550-757) or 15 μM GST-BRCA1 BRCT domains (residues 1634-1863) in 50 mM Tris/HCl (pH 8.1), 300 mM NaCl. Twenty injections were performed with 240 second intervals between injections and a reference power of 25 μCal/s. Binding isotherms were plotted and analyzed using ORIGIN Software (MicroCal Inc. Studio City, Calif.).

[4] = molecular target: T3, GST-BRCA1 BRCT domains (residues 1634-1863) (Homo sapiens, UniProt P38398); experiment: Isothermal titration calorimetry of peptides with BRCA1 tandem BRCT domains; assay type: binding; settings: BRCA1; N.D.B = no detectable binding by ITC, tandem BRCT domain concentration of at least 150 μM
T3 construct: 15 μM GST-BRCA1 BRCT domains (residues 1634-1863); made in house; host or cells: E. coli DH5a
T3 sequence (P38398 1634-1863): as the sequence (P38398 1634-1863) above
Description: as §2, §3

[5] = molecular target: T4, GST-PTIP tandem BRCT domains interaction with 53BP1 (Homo sapiens, UniProt Q6ZW49); experiment: GST-PTIP tandem BRCT pull-down of 53BP1 from irradiated U2OS cells; assay type: binding; settings: 350 μM peptide or library, 1 hour at 4° C., IR treated U2OS
T4 construct: 10-20 μg of GST-PTIP BRCT domains (residues 550-757); made in house; host or cells: E. coli DH5a (GST-PTIP BRCT); 53BP1 endogenous from U2OS lysate
T4 sequence (Q6ZW49 862-1069): as the sequence (Q6ZW49 862-1069) above
Protocol: as §1

Kd (N.D.B.) [3]	Kd (N.D.B.) [4]	effect of bead pre-incubation with peptide/library on PTIP BRCT interaction with 53BP1 [5]	effect of bead pre-incubation with peptide/library on PTIP BRCT interaction with 53BP1 ([5]; listed as non-phosphorylated counterpart)	Compound	effect of caffeine pre-treatment of cells on BRCA1 BRCT binding to (pSer or pThr)-Gln-containing proteins ([1]; caffeine prior to γ-irradiation, U2OS)	effect of caffeine treatment of cells on PTIP BRCT interaction with 53BP1 [2]	effect of pre-incubation with peptide/library on BRCA1 BRCT binding to (pSer or pThr)-Gln-containing proteins ([1]; 350 μM peptide or library, U2OS lysates after 10 Gy)
–	–	–	–	Cn1c(=O)c2c(ncn2C)n(C)c1=O [caffeine, reference compound]	largely eliminated	disrupted the interaction; also recorded: eliminated	–
N.D.B.	N.D.B.	not	not eliminated	GAAYDITQVFPFAKKK [BRCTtide-7T]	–	–	not
